Source: patent US20240391931A1 (Bristol-Myers Squibb Company, priority 2021, published 2024)
Counter-ions that a name gives are not always drawn.

What was measured:
BT474 cells = assay: Cellular proliferation in BT474 cells (CellTiter Glo); format: cell-based, human; settings: 120 h, redosed after 72 h
Procedure: (§1) In addition to the engineered cell lines, the following cell lines were used: BT474 (human breast carcinoma), N87 (human gastric carcinoma), NCI-H1781 (human lung adenocarcinoma), and A431 (human epidermoid carcinoma); all cell lines were obtained from the American Type Culture Collection (ATCC, Manassas, VA). NCI-H1781 were grown in complete RPMI 1640 (Life Technologies, Carlsbad, CA) supplemented with 15% fetal bovine serum (FBS, Life Technologies, Carlsbad, CA) and 1% Penicillin-Streptomycin (P/S, Life Technologies, Carlsbad, CA). N87 cells were grown in complete RPMI 1640 supplemented with 10% FBS and 1% P/S. BT474 and A431 cells were grown in DMEM (Life Technologies, Carlsbad, CA) supplemented with 10% FBS and 1% P/S. All cells were maintained and propagated in a humidified 5% CO2 incubator at 37° C.
(§2) Cell proliferation in adherent cells was investigated in two HER2 amplified cell lines (BT474, N87), and a HER2VC expressing cell line (NCI-H1781). BT474, NCI-H1781, and N87 were plated in their appropriate growth media supplemented with either 10% FBS (BT474, N87) or 15% FBS (NCI-H1781) and 1% P/S in 96-well white clear-bottom tissue culture plates (Costar, Sigma-Aldrich). The starting cell densities were 3500, 5500, and 5000 cells for BT474, NCI-H1781, and N87 cells, respectively. An 8-point standard curve with varying cell densities (starting at 50000 cells and serially diluting down 2-fold) was prepared for each cell line and read 6 h after plating. Cells were allowed to attach overnight prior to compound treatment. Compound solutions were prepared by serially diluting test compounds in DMSO (Sigma-Aldrich), then diluting 500× in their corresponding serum free media. Cells were treated by adding a 1:1 volume of test compound to a final concentration of […], 0.004, 0.0014, or 0.0005 μM, in 0.1% DMSO and 5% FBS (for BT474 and N87) or 7.5% FBS (NCI-H1781). In BT474 and NCI-H1781, cell media was replaced and cells were redosed with fresh test compound solutions after 72 h. Viability was determined by CellTiter Glo (Promega, Madison, WI) after 72 h for N87 cells, and after 120 h for BT474 and […] cells. The results were converted to cell numbers using a standard curve; growth inhibition (GI50 values) were determined by Graph Pad Prism. […] The results are provided in Table 4, under columns titled “BT474-GI50”, “N87-GI50”, and “NCI-H1781-GI50”.

[1] = molecular target: T1, HER2 wildtype (WT) protein (Homo sapiens, UniProt P04626); assay: HER2 signaling (pHER2 Tyr1248/total HER2 MSD) in N87 cells; format: cell-based; settings: 1.5 hr compound, 1% FBS
T1 construct: BT474 and N87 cell lines which endogenously overexpress the HER2 wildtype (WT) protein; endogenous in cells; host or cells: BT474, N87
T1 sequence (P04626 23-1255): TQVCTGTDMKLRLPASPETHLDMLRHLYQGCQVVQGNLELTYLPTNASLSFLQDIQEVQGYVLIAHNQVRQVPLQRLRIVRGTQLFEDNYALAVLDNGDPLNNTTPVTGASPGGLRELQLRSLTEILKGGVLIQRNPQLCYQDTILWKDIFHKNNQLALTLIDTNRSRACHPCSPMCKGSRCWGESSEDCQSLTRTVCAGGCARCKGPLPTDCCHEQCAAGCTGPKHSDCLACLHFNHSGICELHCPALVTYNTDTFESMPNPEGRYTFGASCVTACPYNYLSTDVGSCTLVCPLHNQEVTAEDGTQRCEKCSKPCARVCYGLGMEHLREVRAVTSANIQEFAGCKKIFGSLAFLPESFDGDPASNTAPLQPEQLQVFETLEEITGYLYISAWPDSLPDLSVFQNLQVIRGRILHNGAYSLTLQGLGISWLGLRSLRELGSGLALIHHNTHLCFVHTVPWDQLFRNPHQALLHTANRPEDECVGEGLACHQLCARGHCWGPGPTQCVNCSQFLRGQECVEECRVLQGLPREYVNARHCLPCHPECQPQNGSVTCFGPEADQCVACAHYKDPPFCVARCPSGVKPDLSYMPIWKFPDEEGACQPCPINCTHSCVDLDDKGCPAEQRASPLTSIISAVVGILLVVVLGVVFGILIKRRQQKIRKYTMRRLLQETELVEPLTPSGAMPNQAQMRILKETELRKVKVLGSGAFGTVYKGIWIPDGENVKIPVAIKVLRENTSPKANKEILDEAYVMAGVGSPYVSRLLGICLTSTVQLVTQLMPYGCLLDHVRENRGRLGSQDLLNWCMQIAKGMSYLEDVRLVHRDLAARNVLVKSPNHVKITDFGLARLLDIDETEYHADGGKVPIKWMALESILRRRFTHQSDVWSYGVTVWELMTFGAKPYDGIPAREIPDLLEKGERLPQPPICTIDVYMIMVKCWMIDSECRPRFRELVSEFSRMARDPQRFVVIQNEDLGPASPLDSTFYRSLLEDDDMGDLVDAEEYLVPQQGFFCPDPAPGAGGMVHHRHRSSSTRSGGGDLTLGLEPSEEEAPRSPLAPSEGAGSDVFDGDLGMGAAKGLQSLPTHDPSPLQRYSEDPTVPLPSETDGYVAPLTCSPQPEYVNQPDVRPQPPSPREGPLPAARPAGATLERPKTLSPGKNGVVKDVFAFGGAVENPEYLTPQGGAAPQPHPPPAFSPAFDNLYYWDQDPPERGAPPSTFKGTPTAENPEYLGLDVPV
Procedure: as §1
(§3) HER2 signaling was assessed in BT474 and N87 cell lines which endogenously overexpress the HER2 wildtype (WT) protein, in NCI-H1781 cells which endogenously expresses a HER2 mutant protein containing a VC insertion in the kinase domain (HER2VC or G776delinsVC), and in engineered cell lines transduced to express the Her2 mutant protein containing the YVMA insertion (Hek293-HER2YVMA and BEAS2B-HER2YVMA).
(§4) BT474, N87, and NCI-H1781 were plated in 96-well tissue-culture treated plates (Corning Costar, Sigma-Aldrich) in full media and incubated overnight. Hek293-HER2YVMA and BEAS2B-HER2YVMA cells were plated in 96-well poly-D-lysine treated plates (BD Bioscience, San Jose, CA). For treatment with test compounds, the media was replaced with corresponding low serum media (1% FBS) containing test compound at 1.1, 0.37, 0.12, 0.041, 0.014, 0.005, 0.0014, 0.0005 μM or DMSO control (0.1%). Cells were incubated with compound for 1.5 hr at 37° C. After compound treatment, the media was removed and cells were lysed for 30 min on ice in complete MSD lysis buffer (prepared using MSD base lysis buffer (Meso-Scale Discovery) supplemented with cOmplete, EDTA-free Protease inhibitor cocktail (Roche), Phosphatase Inhibitor Cocktails 2 and 3 (Sigma-Aldrich), and 1 mM PMSF (Sigma-Aldrich)). Lysates were stored at −70° C. until further analysis.
(§5) HER2 signaling was evaluated using phospho (Tyr1248)/total ErbB2 whole cell lysate MSD plates (Meso-Scale Discovery, Gaithersburg, MD). The phospho HER2 signal was normalized to total HER2 for each sample; results are reported as % DMSO control. The normalized data was fitted using a sigmoidal curve analysis program (Graph Pad Prism version 6) with variable Hill slope to determine EC50 values.
(§6) The HER2 signaling results are provided in Table 4, under columns titled “BT474-pHER2 EC50”, “N87-pHER2 EC50”, and “NCI-H1781-pHER2 EC50”. Hek293-HER2YVMA ins fall under the heading “HEKYVMA-pHER2 EC50”, Ba/F3 HER2YVMA fall under the heading “Ba/F3 YVMA-pHER2 EC50” and BEAS2B-HER2YVMA fall under the heading “BEAS2B YVMA-pHER2 EC50”.

N87 cells = assay: Cellular proliferation in N87 cells (CellTiter Glo); format: cell-based, human; settings: 72 h
Procedure: as §1, §2

HER2VC (G776delinsVC) = molecular target: T2, HER2VC (G776delinsVC) (Homo sapiens, UniProt P04626, G776C/INS775V); assay: HER2 signaling (pHER2) in NCI-H1781 cells; format: cell-based; settings: 1.5 hr compound, 1% FBS
T2 construct: NCI-H1781 cells which endogenously expresses a HER2 mutant protein; endogenous in cells; host or cells: NCI-H1781
T2 sequence (P04626 with tags, fused parts or gaps INS775V/G776C): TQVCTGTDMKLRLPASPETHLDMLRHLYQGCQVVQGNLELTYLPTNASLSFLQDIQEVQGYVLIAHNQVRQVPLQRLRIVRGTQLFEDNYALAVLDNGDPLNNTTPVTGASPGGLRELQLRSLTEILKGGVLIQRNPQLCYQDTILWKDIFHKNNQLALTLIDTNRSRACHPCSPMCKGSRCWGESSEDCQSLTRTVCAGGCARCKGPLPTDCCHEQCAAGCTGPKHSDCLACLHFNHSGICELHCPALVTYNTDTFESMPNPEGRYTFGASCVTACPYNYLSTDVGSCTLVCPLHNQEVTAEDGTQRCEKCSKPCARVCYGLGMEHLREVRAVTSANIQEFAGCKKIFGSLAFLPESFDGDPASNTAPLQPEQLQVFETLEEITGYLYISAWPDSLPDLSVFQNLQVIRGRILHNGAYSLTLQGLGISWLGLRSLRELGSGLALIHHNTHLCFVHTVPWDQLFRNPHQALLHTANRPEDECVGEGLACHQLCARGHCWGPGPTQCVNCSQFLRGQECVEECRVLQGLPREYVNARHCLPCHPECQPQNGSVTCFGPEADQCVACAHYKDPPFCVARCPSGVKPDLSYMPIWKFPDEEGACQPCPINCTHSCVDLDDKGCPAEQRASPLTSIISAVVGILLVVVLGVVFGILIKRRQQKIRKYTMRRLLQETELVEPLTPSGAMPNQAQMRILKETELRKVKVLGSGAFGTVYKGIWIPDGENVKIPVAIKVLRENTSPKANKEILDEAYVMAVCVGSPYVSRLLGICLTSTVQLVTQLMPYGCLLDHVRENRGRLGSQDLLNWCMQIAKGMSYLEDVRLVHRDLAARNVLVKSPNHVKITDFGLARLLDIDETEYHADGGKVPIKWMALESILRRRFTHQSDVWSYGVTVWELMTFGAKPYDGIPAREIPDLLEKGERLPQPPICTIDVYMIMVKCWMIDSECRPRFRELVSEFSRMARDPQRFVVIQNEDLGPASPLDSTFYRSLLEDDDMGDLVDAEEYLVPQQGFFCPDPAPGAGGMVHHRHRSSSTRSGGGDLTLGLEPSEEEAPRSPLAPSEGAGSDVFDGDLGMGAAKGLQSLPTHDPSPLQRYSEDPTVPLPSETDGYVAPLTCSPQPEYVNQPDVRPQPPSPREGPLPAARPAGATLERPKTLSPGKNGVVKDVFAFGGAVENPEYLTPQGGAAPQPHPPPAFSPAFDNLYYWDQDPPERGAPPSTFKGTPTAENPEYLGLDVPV
Procedure: as §1, §3, §4, §5, §6

NCI-H1781 cells = assay: Cellular proliferation in NCI-H1781 cells (CellTiter Glo); format: cell-based, human; settings: 120 h, redosed after 72 h
Procedure: as §1, §2

[2] = Homo sapiens, BT-474, BT474 cells
[3] = Homo sapiens, NCI-H1781, NCI-H1781 cells

Row | SMILES | GI50 (BT474 cells; [2]) | EC50 [1] | GI50 (N87 cells; Homo sapiens) | EC50 (HER2VC (G776delinsVC)) | GI50 (NCI-H1781 cells; [3]) | GI50 (BT474 cells; BT474 cells) | GI50 (N87 cells) | GI50 (NCI-H1781 cells; NCI-H1781 cells) | GI50 (NCI-H1781 cells; Homo sapiens, NCI-H1781 cells)
1 | Cc1ccc(Oc2ccc(Nc3ncnc4sc5c(c34)C(C)N(C(=O)C=CCN(C)C)C5)cc2C)cn1 (single isomer, unassigned) [Compound 147] | < 100 nM | < 100 nM | < 100 nM | < 100 nM | < 100 nM |  |  |  | 
2 | COc1ccc(Oc2ccc(Nc3ncnc4sc5c(c34)C(C)CN(C(=O)C=CCN(C)C)C5)cc2C)cn1 (single isomer, unassigned) [Compound 159] | < 100 nM | < 100 nM | < 100 nM | 100 to 350 nM | 100 to 350 nM |  |  |  | 
3 | COc1ccc(Oc2ccc(Nc3ncnc4sc5c(c34)C(C)CN(C(=O)C=CCN(C)C)C5)cc2C)cn1 (single isomer, unassigned) [Compound 160] |  | < 100 nM |  | < 100 nM |  | < 100 nM | < 100 nM | < 100 nM | 
4 | Cc1ccc(Oc2ccc(Nc3ncnc4sc5c(c34)CN(C(=O)C=CCN(C)C)C5C)cc2C)cn1 (single isomer, unassigned) [Compound 169] | < 100 nM | < 100 nM | < 100 nM | < 100 nM |  |  |  | < 100 nM | 
5 | Cc1ccc(Oc2ccc(Nc3ncnc4sc5c(c34)C(C)CN(C(=O)C=CCN3CCOCC3)C5)cc2C)cn1 (single isomer, unassigned) [Compound 177] |  | < 100 nM |  | < 100 nM |  |  |  |  | 
6 | Cc1ccc(Oc2ccc(Nc3ncnc4sc5c(c34)CCN(C(=O)/C=C/CN(C)C)C5)cc2C)cn1 [Compound 8, (E)-4-(Dimethylamino)-1-(4-((3-methyl-4-((6-methylpyridin-3-yl)oxy)phenyl)amino)-5,6-dihydropyrido[4′,3′:4,5]thieno[2,3-d]pyrimidin-7(8H)-yl)but-2-en-1-one] | < 100 nM | < 100 nM | < 100 nM | < 100 nM |  |  |  |  | < 100 nM
7 | Cc1ccc(Oc2ccc(Nc3ncnc4sc5c(c34)CCN(C(=O)/C=C/CN3CC4CC(C3)O4)C5)cc2C)cn1 [Compound 15] |  | < 100 nM |  |  |  |  |  |  | 
8 | Cc1ccc(Oc2ccc(Nc3ncnc4sc5c(c34)CCN(C(=O)/C=C/CN3CC4CCC(C4)C3)C5)cc2C)cn1 [Compound 16, (E)-4-(3-azabicyclo[3.2.1]octan-3-yl)-1-(4-((3-methyl-4-((6-methylpyridin-3-yl)oxy)phenyl)amino)-5,8-dihydropyrido[4′,3′:4,5]thieno[2,3-d]pyrimidin-7(6H)-yl)but-2-en-1-one benzenesulfonate salt] |  | < 100 nM |  |  |  |  |  |  | 
9 | Cc1ccc(Oc2ccc(Nc3ncnc4sc5c(c34)CCN(C(=O)/C=C/CN3CCOCC3)C5)cc2C)cn1 [Compound 17, (E)-1-(4-((3-Methyl-4-((6-methylpyridin-3-yl)oxy)phenyl)amino)-5,6-dihydropyrido[4′,3′:4,5]thieno[2,3-d]pyrimidin-7(8H)-yl)-4-morpholinobut-2-en-1-one] | < 100 nM | < 100 nM | < 100 nM | < 100 nM | < 100 nM |  |  |  | 
10 | COc1ccc(Oc2ccc(Nc3ncnc4sc5c(c34)CN(C(=O)/C=C/CN(C)C)C5)cc2C)cn1 [Compound 128, (E)-4-(dimethylamino)-1-(4-((4-((6-methoxypyridin-3-yl)oxy)-3-methylphenyl)amino)-5,7-dihydro-6H-pyrrolo[3′,4′:4,5]thieno[2,3-d]pyrimidin-6-yl)but-2-en-1-one] | < 100 nM | < 100 nM | < 100 nM | 100 to 350 nM | < 100 nM |  |  |  | 
11 | Cc1ccc(Oc2ccc(Nc3ncnc4sc5c(c34)CN(C(=O)/C=C/CN(C)C)C5)cc2Cl)cn1 [Compound 129, (E)-1-(4-((3-Chloro-4-((6-methylpyridin-3-yl)oxy)phenyl)amino)-5H-pyrrolo[3′,4′:4,5]thieno[2,3-d]pyrimidin-6(7H)-yl)-4-(dimethylamino)but-2-en-1-one] | < 100 nM | < 100 nM | < 100 nM | < 100 nM | < 100 nM |  |  |  | 
